Patent publication US20260250318A1, “COMPOSITIONS AND METHODS FOR CROSSING THE BLOOD BRAIN BARRIER” (VOYAGER THERAPEUTICS, INC., priority 2022, published 2026)

How the values were obtained:
[1] = system: brain; experiment: Matured TTM-001 and TTM-002 variants, NGS enrichment in mouse brain; format: in vivo, mice; details: relative to AAV9 control
[2] = system: brains, heart, liver, muscle, and DRG of the NHPs; experiment: Maturation of TTM-001 and TTM-002 capsids, NGS enrichment in NHP tissues; format: in vivo; details: relative to AAV9 control
How it was run: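 Variants carry mutations within and flanking the loop IV peptide insert: positions 450–466 were triplet-randomized, while positions 449–466 received low-frequency point mutations. The combined pool went into two NHPs, and each peptide was scored by NGS enrichment ratio against AAV9.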

[3] = NGS fold-enrichment of matured AAV capsid variants, NHP brain, RNA
[4] = NGS fold-enrichment, brain of mice
[5] = NGS fold-enrichment, mouse brain
[6] = NGS fold-enrichment of RNA, NHP brain
[7] = NGS fold-enrichment, DRG of NHPs
[8] = NGS fold-enrichment, NHP liver DNA
[9] = NGS fold-enrichment, NHP liver RNA
[10] = NGS fold-enrichment, NHP muscle
[11] = NGS fold-enrichment, RNA, brain of NHPs
[12] = NGS fold-enrichment, heart of NHPs
[13] = NGS fold-enrichment, liver DNA of NHPs
[14] = NGS fold-enrichment, liver RNA of NHPs
[15] = NGS fold-enrichment, muscle of NHPs

Sequence | Fold Enrichment relative to AAV9, Brain (Mouse) ([1]; mouse brain) [fold] | Fold Enrichment relative to AAV9, Brain (NHP) [2, 3] [fold] | Fold Enrichment relative to AAV9, DRG (NHP) ([2]; NHP DRG) [fold] | Fold Enrichment relative to AAV9, Heart (NHP) ([2]; NHP heart) [fold] | Fold Enrichment relative to AAV9, Liver DNA (NHP) ([2]; NHP liver, DNA) [fold] | Fold Enrichment relative to AAV9, Liver RNA (NHP) ([2]; NHP liver, RNA) [fold] | Fold Enrichment relative to AAV9, Brain (Mouse) [1, 4] [fold] | Fold Enrichment relative to AAV9, Brain (Mouse) [1, 5] [fold] | Fold Enrichment relative to AAV9, Brain (NHP) [2, 6] [fold] | Fold Enrichment relative to AAV9, DRG (NHP) [2, 7] [fold] | Fold Enrichment relative to AAV9, DRG (NHP) ([2]; NGS fold-enrichment, NHP DRG) [fold] | Fold Enrichment relative to AAV9, Heart (NHP) ([2]; NGS fold-enrichment, NHP heart) [fold] | Fold Enrichment relative to AAV9, Liver DNA (NHP) [2, 8] [fold] | Fold Enrichment relative to AAV9, Liver RNA (NHP) [2, 9] [fold] | Fold Enrichment relative to AAV9, Muscle (NHP) [2, 10] [fold] | Fold Enrichment relative to AAV9, Brain (NHP) [2, 11] [fold] | Fold Enrichment relative to AAV9, Heart (NHP) [2, 12] [fold] | Fold Enrichment relative to AAV9, Liver DNA (NHP) [2, 13] [fold] | Fold Enrichment relative to AAV9, Liver RNA (NHP) [2, 14] [fold] | Fold Enrichment relative to AAV9, Muscle (NHP) [2, 15] [fold] | also measured
KTDVKSGSPHSKAQNQQT | 53.601 | 51.296 | 0.000 | 0.000 | 0.224 | 0.515 | – | – | – | – | – | – | – | – | – | – | – | – | – | – | Fold Enrichment relative to AAV9, Muscle (NHP) ([2]; NHP muscle): 0.000 fold
KAINGSGSPHSKAQNLAT | – | – | – | – | – | – | 116.685 | 116.685 | 101.954 | 0.000 | 0.000 | 10.954 | 0.239 | 0.298 | 8.655 | 101.954 | 10.954 | 0.239 | 0.298 | 8.655 | –
KTSSGSGSPHSKAQYQQT | – | – | – | – | – | – | 58.143 | 58.143 | 87.304 | 0.000 | 0.000 | 0.000 | 0.299 | 0.000 | 0.000 | 87.304 | 0.000 | 0.299 | 0.000 | 0.000 | –
KTINGSGSPHSKAQAPST | – | – | – | – | – | – | 115.528 | – | – | 0.200 | – | – | – | – | – | 60.696 | 0.005 | 0.263 | 0.751 | 0.000 | –
KSVNGNGSPHSKAQNQQT | – | – | – | – | – | – | 51.016 | 51.016 | 99.385 | 0.000 | 0.000 | 1.329 | 0.079 | 0.359 | 0.000 | 99.385 | 1.329 | 0.079 | 0.359 | 0.000 | –
KTINGPGSPHSKAHNQQT | – | – | – | – | – | – | 52.508 | 52.508 | 115.742 | 0.146 | 0.146 | 0.000 | 0.513 | 0.000 | 0.235 | 115.742 | 0.000 | 0.513 | 0.000 | 0.235 | –
KTINGHDSPHKSRLNQPT | – | – | – | – | – | – | – | 5.598 | 92.883 | – | 0.000 | 0.070 | 1.075 | 0.904 | 0.050 | – | – | – | – | – | –
KTENASGSPHSKAQNQQT | 88.439 | 58.187 | 0.000 | 0.038 | 0.129 | 0.371 | – | – | – | – | – | – | – | – | – | – | – | – | – | – | Fold Enrichment relative to AAV9, Muscle (NHP) ([2]; NHP muscle): 0.000 fold
KTVNGHDSPHKSGQTRQT | – | – | – | – | – | – | – | 7.174 | 133.276 | – | 0.251 | 0.080 | 0.129 | 0.034 | 0.093 | – | – | – | – | – | –
KTLNGNGSPHSKAQNLQT | 159.134 | 54.458 | 0.668 | 0.000 | 0.172 | 0.161 | – | – | – | – | – | – | – | – | – | – | – | – | – | – | Fold Enrichment relative to AAV9, Muscle (NHP) ([2]; NHP muscle): 0.000 fold
KTVNGGGSPHSKAQNQQS | – | – | – | – | – | – | 61.847 | – | – | 0.062 | – | – | – | – | – | 59.871 | 0.020 | 0.185 | 0.080 | 0.000 | –
KTVNGSGSPHSKARDQQT | – | – | – | – | – | – | 132.137 | 132.137 | 124.789 | 0.123 | 0.123 | 0.039 | 0.454 | 0.569 | 0.312 | 124.789 | 0.039 | 0.454 | 0.569 | 0.312 | –
KTINGSGSPHSKAQSLQI | 51.543 | 53.778 | 0.000 | 0.186 | 0.047 | 0.022 | – | – | – | – | – | – | – | – | – | – | – | – | – | – | Fold Enrichment relative to AAV9, Muscle (NHP) ([2]; NHP muscle): 0.000 fold
